Measured values reported in PubChem BioAssay AID264 (DTP/NCI, 2004).
Where “and” joins values, the source holds several entries; their conditions need not be identical. Equal entries are not always repeated. Inconclusive results are not listed.

System: nude mice, LX-1 lung xenograft intrarenal, tumor weight T/C
Assay: NCI In Vivo Anticancer Drug Screen. Data for tumor model Human Lung LX-1 Xenograft (intrarenal inoculation) in NU/NU Swiss (nude) mice
Conditions: endpoint: mean tumor weight change, higher = larger tumour
Method in brief: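 Activity was scored by measuring tumors in treated animals and in vehicle controls, then reporting the treated result as a fraction of the control result.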

[1] = dose: 75.0 mg/kg/injection, schedule: Q04DX003 (sc), vehicle: water
[2] = dose: 200.0 mg/kg/injection, schedule: Q01DX010 (sc), vehicle: saline with Tween-80
[3] = dose: 25.0 mg/kg/injection, schedule: Q04DX003 (sc), vehicle: saline
[4] = dose: 50.0 mg/kg/injection, schedule: Q04DX003 (sc), vehicle: saline
[5] = dose: 100.0 mg/kg/injection, schedule: Q04DX003 (sc), vehicle: saline
[6] = dose: 600.0 mg/kg/injection, schedule: Q04DX003 (sc), vehicle: saline with Tween-80
[7] = dose: 1200.0 mg/kg/injection, schedule: Q04DX003 (sc), vehicle: saline with Tween-80
[8] = dose: 2400.0 mg/kg/injection, schedule: Q04DX003 (sc), vehicle: saline with Tween-80
[9] = dose: 75.0 mg/kg/injection, schedule: Q04DX003 (sc), vehicle: saline with Tween-80
[10] = dose: 150.0 mg/kg/injection, schedule: Q04DX003 (sc), vehicle: saline with Tween-80
[11] = dose: 300.0 mg/kg/injection, schedule: Q04DX003 (sc), vehicle: saline with Tween-80

## CC[N+](CC)(CC)CC
dose: 1.5 mg/kg/injection, schedule: Q01DX010 (sc), vehicle: saline with Tween-80
  T/C: 88 % of control
dose: 12.0 mg/kg/injection, schedule: Q01DX010 (sc), vehicle: saline with Tween-80
  T/C: 25 % of control and 49 % of control

## COc1ccc(OC)c(Cc2cnc3nc(N)nc(N)c3c2C)c1
[1]
  T/C: 82 % of control
dose: 150.0 mg/kg/injection, schedule: Q04DX003 (sc), vehicle: water
  T/C: 80 % of control
dose: 300.0 mg/kg/injection, schedule: Q04DX003 (sc), vehicle: water
  T/C: 94 % of control
dose: 600.0 mg/kg/injection, schedule: Q04DX003 (sc), vehicle: water
  T/C: 94 % of control

## O=C1N(Cl)C(=O)C(c2ccc(Cl)cc2)(c2ccc(Cl)cc2)N1Cl
dose: 50.0 mg/kg/injection, schedule: Q01DX010 (sc), vehicle: saline with Tween-80
  T/C: 98 % of control
[2]
  T/C: 57 % of control
dose: 400.0 mg/kg/injection, schedule: Q01DX010 (sc), vehicle: saline with Tween-80
  T/C: 118 % of control

## CCN=C=NCCCN(C)C
[3]
  T/C: 99 % of control
[4]
  T/C: 102 % of control
[5]
  T/C: 84 % of control

## CCCCCC1c2cc(O)ccc2OC1N1CCOCC1 (configuration not stated)
[6]
  T/C: 150 % of control
[7]
  T/C: 52 % of control
[8]
  T/C: 89 % of control

## S=C=NCCc1ccccc1
[2]
  T/C: 68 % of control

## CNc1nc(N(C)C)nc(N(C)C)n1
dose: 12.5 mg/kg/injection, schedule: Q04DX003 (sc), vehicle: water
  T/C: 177 % of control
dose: 15.0 mg/kg/injection, schedule: Q01DX010 (ip), vehicle: water
  T/C: 55 % of control
dose: 15.0 mg/kg/injection, schedule: Q01DX010 (sc), vehicle: water
  T/C: 121 % of control
dose: 30.0 mg/kg/injection, schedule: Q01DX010 (ip), vehicle: water
  T/C: 287 % of control
dose: 30.0 mg/kg/injection, schedule: Q01DX010 (sc), vehicle: water
  T/C: 56 % of control
dose: 50.0 mg/kg/injection, schedule: Q04DX003 (ip), vehicle: water
  T/C: 67 % of control
dose: 60.0 mg/kg/injection, schedule: Q01DX010 (ip), vehicle: water
  T/C: 71 % of control
dose: 60.0 mg/kg/injection, schedule: Q01DX010 (sc), vehicle: water
  T/C: 69 % of control
dose: 100.0 mg/kg/injection, schedule: Q04DX003 (ip), vehicle: water
  T/C: 59 % of control
dose: 100.0 mg/kg/injection, schedule: Q04DX003 (sc), vehicle: water
  T/C: 114 % of control and 218 % of control
dose: 120.0 mg/kg/injection, schedule: Q01DX010 (sc), vehicle: water
  T/C: 64 % of control
dose: 200.0 mg/kg/injection, schedule: Q04DX003 (ip), vehicle: water
  T/C: 54 % of control

## COc1cc(NS(C)(=O)=O)ccc1Nc1c2ccccc2nc2ccccc12
dose: 0.47 mg/kg/injection, schedule: Q01DX010 (sc), vehicle: clinical formulation
  T/C: 151 % of control
dose: 0.75 mg/kg/injection, schedule: Q01DX010 (sc), vehicle: other
  T/C: 99 % of control
dose: 0.94 mg/kg/injection, schedule: Q01DX010 (sc), vehicle: lactic acid
  T/C: 84 % of control
dose: 1.5 mg/kg/injection, schedule: Q01DX010 (sc), vehicle: other
  T/C: 88 % of control
dose: 1.88 mg/kg/injection, schedule: Q01DX010 (sc), vehicle: clinical formulation
  T/C: 110 % of control
dose: 1.88 mg/kg/injection, schedule: Q01DX010 (sc), vehicle: lactic acid
  T/C: 109 % of control
dose: 3.0 mg/kg/injection, schedule: Q01DX010 (sc), vehicle: other
  T/C: 64 % of control
dose: 3.75 mg/kg/injection, schedule: Q01DX010 (sc), vehicle: lactic acid
  T/C: 46 % of control

## CC(=O)[O][Pb]([O]C(C)=O)([c]1ccccc1)[c]1ccccc1
dose: 400.0 mg/kg/injection, schedule: Q01DX010 (sc), vehicle: Klucel (hydroxypropylcellulose) (HPC)
  T/C: 40 % of control

## NC(=O)c1ccc[n+](Cc2c(Cl)cccc2Cl)c1
[4]
  T/C: 115 % of control
[5]
  T/C: 83 % of control
dose: 200.0 mg/kg/injection, schedule: Q04DX003 (sc), vehicle: saline
  T/C: 90 % of control

## CC1(C)CC23C4COC(=O)C2CCC1C3CC4=O (configuration not stated)
dose: 150.0 mg/kg/injection, schedule: Q04DX003 (sc), vehicle: DMSO
  T/C: 88 % of control
dose: 300.0 mg/kg/injection, schedule: Q04DX003 (sc), vehicle: DMSO
  T/C: 51 % of control
dose: 600.0 mg/kg/injection, schedule: Q04DX003 (sc), vehicle: DMSO
  T/C: 67 % of control
dose: 1200.0 mg/kg/injection, schedule: Q04DX003 (sc), vehicle: DMSO
  T/C: 63 % of control

## O=c1[nH]cc(F)c(=O)[nH]1
dose: 5.0 mg/kg/injection, schedule: Q01DX010 (sc), vehicle: saline
  T/C: 107 % of control
dose: 20.0 mg/kg/injection, schedule: Q01DX010 (sc), vehicle: saline
  T/C: 56 % of control
dose: 40.0 mg/kg/injection, schedule: Q01DX010 (sc), vehicle: saline
  T/C: 25 % of control

## CN(C)CCCNc1c2ccccc2nc2cccc([N+](=O)[O-])c12
dose: 0.37 mg/kg/injection, schedule: Q04DX003 (sc), vehicle: saline
  T/C: 117 % of control
dose: 0.75 mg/kg/injection, schedule: Q04DX003 (sc), vehicle: saline
  T/C: 100 % of control
dose: 1.5 mg/kg/injection, schedule: Q04DX003 (sc), vehicle: saline
  T/C: 95 % of control

## COc1cccc2c1C(=O)c1c(O)c3c(c(O)c1C2=O)C[C@@](O)(/C(C)=N\O)C[C@@H]3OC1CC(N)C(O)C(C)O1 (some centres not stated)
[3]
  T/C: 95 % of control
[4]
  T/C: 76 % of control

## O=c1n(CC2CO2)c(=O)n(CC2CO2)n1CC1CO1 (configuration not stated)
dose: 12.5 mg/kg/injection, schedule: Q04DX003 (sc), vehicle: saline
  T/C: 74 % of control
[3]
  T/C: 77 % of control

## Cc1cc(=O)n2c3c(c4c(cc13)c(CN(C)C)cc(=O)n4C)OC2
[9]
  T/C: 59 % of control
[10]
  T/C: 89 % of control
[11]
  T/C: 55 % of control

## Nc1n[n+](-c2ccccc2)no1
dose: 37.5 mg/kg/injection, schedule: Q04DX003 (sc), vehicle: water
  T/C: 87 % of control
[1]
  T/C: 89 % of control

## C=C1C(=O)O[C@@H]2[C@H](O)[C@@H](C)[C@@H]3C=CC(=O)[C@@]3(C)[C@H](OC(=O)C=C(C)C)[C@H]12
dose: 9.38 mg/kg/injection, schedule: Q04DX003 (sc), vehicle: saline with Tween-80
  T/C: 95 % of control
dose: 18.75 mg/kg/injection, schedule: Q04DX003 (sc), vehicle: saline with Tween-80
  T/C: 101 % of control
dose: 37.5 mg/kg/injection, schedule: Q04DX003 (sc), vehicle: saline with Tween-80
  T/C: 100 % of control

## CC1CCC(NC(=O)N(CCCl)N=O)CC1 (configuration not stated)
dose: 6.25 mg/kg/injection, schedule: Q01DX010 (sc), vehicle: Klucel (hydroxypropylcellulose) (HPC)
  T/C: 34 % of control
dose: 12.5 mg/kg/injection, schedule: Q01DX010 (sc), vehicle: Klucel (hydroxypropylcellulose) (HPC)
  T/C: 5 % of control

## CCC(CC)COC(=O)c1ccccc1C(=O)OCC(CC)CC
[11]
  T/C: 56 % of control
[6]
  T/C: 71 % of control
[7]
  T/C: 64 % of control
[8]
  T/C: 73 % of control

## O=S(=O)(O)O
dose: 150.0 mg/kg/injection, schedule: Q04DX003 (sc), vehicle: Klucel (hydroxypropylcellulose) (HPC)
  T/C: 70 % of control
dose: 300.0 mg/kg/injection, schedule: Q04DX003 (sc), vehicle: Klucel (hydroxypropylcellulose) (HPC)
  T/C: 167 % of control
dose: 600.0 mg/kg/injection, schedule: Q04DX003 (sc), vehicle: Klucel (hydroxypropylcellulose) (HPC)
  T/C: 73 % of control

## CC1(C)OC2C(COC(=O)c3ccc([N+](=O)[O-])cc3)OC(NC(=O)N(CCCl)N=O)C2O1 (configuration not stated)
[9]
  T/C: 84 % of control
[10]
  T/C: 43 % of control
[11]
  T/C: 41 % of control
[6]
  T/C: 27 % of control

## C=C(C)[C@@H]1CCc2c(O)c(O)c(=O)cc(C)c2C1
dose: 300.0 mg/kg/injection, schedule: Q04DX003 (sc), vehicle: saline
  T/C: 106 % of control
dose: 600.0 mg/kg/injection, schedule: Q04DX003 (sc), vehicle: saline
  T/C: 62 % of control
dose: 1200.0 mg/kg/injection, schedule: Q04DX003 (sc), vehicle: saline
  T/C: 90 % of control
dose: 2400.0 mg/kg/injection, schedule: Q04DX003 (sc), vehicle: saline
  T/C: 85 % of control

## C/C=C/c1cc2n(c1)C(=O)c1cc(OC3OC(C)C(NC)C(C)(O)C3O)c(C)c(O)c1NC2O (configuration not stated)
dose: 50.0 micrograms/kg/injection, schedule: Q04DX003 (sc), vehicle: saline
  T/C: 54 % of control
dose: 200.0 micrograms/kg/injection, schedule: Q04DX003 (sc), vehicle: saline
  T/C: 92 % of control
dose: 400.0 micrograms/kg/injection, schedule: Q04DX003 (sc), vehicle: saline
  T/C: 91 % of control
